Results reported in patent US20220267356A1, “ARGINASE INHIBITORS AND METHODS OF USE THEREOF” (AstraZeneca AB, priority 2019, published 2022).

Key:
Human Arginase 1 = biological target: T1, Human Arginase 1 (Homo sapiens, UniProt P05089); assay: Human Arginase 1 enzyme inhibition (thioarginine/DTNB absorbance at 412 nm); assay type: biochemical; conditions: recombinant enzyme 5 nM, 60 min, room temperature
T1 construct: made in house; host or cells: E. coli
T1 sequence (P05089 1-322): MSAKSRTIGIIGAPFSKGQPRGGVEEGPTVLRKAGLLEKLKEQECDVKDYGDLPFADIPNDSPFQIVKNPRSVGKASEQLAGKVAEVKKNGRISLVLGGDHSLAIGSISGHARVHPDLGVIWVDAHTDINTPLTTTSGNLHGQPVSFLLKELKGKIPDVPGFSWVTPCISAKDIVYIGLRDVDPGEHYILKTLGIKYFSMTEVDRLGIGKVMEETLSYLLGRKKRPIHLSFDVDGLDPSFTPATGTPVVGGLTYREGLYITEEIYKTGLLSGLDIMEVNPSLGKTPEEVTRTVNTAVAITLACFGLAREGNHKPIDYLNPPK
Source text: (§1) The inhibitory effects of Examples 1-26 on the activity of Human Arginase 1 and Arginase 2 activity were quantified by measuring the formation of the thiol group from thioarginine using recombinant Arginase 1 or Arginase 2 produced from E. coli. The thiol group was detected with Ellman's reagent, 5,5′-dithiobis(2-nitrobenzoic acid) (DTNB). DTNB reacts with the thiol to give the mixed disulfide and 2-nitro-5-thiobenzoic acid (TNB) which is quantified by the absorbance of the anion (TNB^2−) at 412 nm.
(§2) The assays were run in clear 384 well plates (Greiner cat no: 781101). Various concentrations of Examples 1-26 in 300 nL DMSO were dispensed to assay plates using an Echo acoustic dispenser immediately followed by plate sealing and centrifugation. Two pre-mixes were prepared from reagents thawed immediately before addition to assay plates. Pre-mix one comprised human Arginase 1 or human Arginase 2, at a final concentration of 5 nM and 0.5 mM DTNB in assay buffer, 45 mM HEPES pH7.5, brij 35, 0.045% (w/v) and 100 μM MnCl2. Pre-mix two comprised freshly thawed 0.5 mM thioarginine in assay buffer. Fifteen microlitres of pre-mix one was dispensed to assay plates containing Examples 1-9, centrifuged and incubated for 30 minutes at room temperature prior to adding fifteen microlitres of pre-mix two.
(§3) Assay plates were centrifuged prior to reading absorbance at 412 nm in a Pherastar multi-mode plate reader to collect data at time point 0 (T0). The plates were incubated at room temperature for 60 min prior to reading again to collect data at time point 1 (T1). Data is derived by subtracting the A412 signal measured at T0 (time point 0) from that measured at T1 (time point 1). The data was transformed to % effect using the equation:
(§4) Compound % effect=100*[(X−min)/(max−min)],
(§5) where X represents the normalized value for the compound based on the Min (vehicle) and Max (reference compound) inhibition control.
(§6) The concentration of Examples 1-26 that inhibited the activity by 50% (i.e.the IC50) was calculated by plotting the % effect versus test compound concentration and fitting the data using the Genedata Screener Smart fit algorithm.

[1] = Bioavailability / pharmacokinetic study in male rats (IV and PO); assay type: in vivo; conditions: rat, pro-drug in plasma when dosed as pro-drug; for clearance / Vd: IV 2 mg/kg; for Vd: read-out: Vdss
Procedure: Example 14 is a prodrug form of Example 1. Examples 19 to 22 and 24 to 26 are prodrugs of example 18. […] Example 19 was formulated in 0.9% w/v saline pH 4 (adjusted with 1 M HCl) for IV dosing. The formulation was dosed at 2 mg/kg by femoral catheter to two male rats each (170-250 g). Jugular vein catheter serial blood samples were taken at 0.033, 0.083, 0.167, 0.5, 1, 2, 4, 8, and 24 hrs post-dose. For PO dosing, Example 19 was formulated in deionized water pH 4 (adjusted with 1 M HCl) and dosed at 5 mg/kg by oral gavage to two male rats each (170-250 g). Serial blood samples were taken by jugular vein catheter at 0.25, 0.5, 1, 1.5, 2, 3, 4, 8, and 24 hrs post dose. Plasma samples were generated from blood using low speed centrifugation. A single set of calibration standards containing Example 18 and Example 19 were prepared by spiking blank plasma. The samples and standards were extracted by precipitation with two volumes of acetonitrile followed by centrifugation. The results obtained were used to determine the Cl (mL/min/kg), Vdss (L/kg), Cmax (μM), AUC (μM h), tmax (h), and % F for both Example 18 and Example 19. Absolute bioavailability was determined by comparing the PO dose normalized AUC of Example 18 when dosed as Example 19, versus the dose normalized IV AUC of Example 18 when dosed as Example 18. Where appropriate, measured, not nominal, doses were used in the calculation. In an analogous fashion, the same procedure was repeated for Examples 14, 20 to 22, and 24 to 26.

Human Arginase 2 = biological target: T2, Human Arginase 2 (Homo sapiens, UniProt P78540); assay: Human Arginase 2 enzyme inhibition (thioarginine/DTNB absorbance at 412 nm); assay type: biochemical; conditions: recombinant enzyme 5 nM, 60 min, room temperature
T2 construct: made in house; host or cells: E. coli
T2 sequence (P78540 23-354): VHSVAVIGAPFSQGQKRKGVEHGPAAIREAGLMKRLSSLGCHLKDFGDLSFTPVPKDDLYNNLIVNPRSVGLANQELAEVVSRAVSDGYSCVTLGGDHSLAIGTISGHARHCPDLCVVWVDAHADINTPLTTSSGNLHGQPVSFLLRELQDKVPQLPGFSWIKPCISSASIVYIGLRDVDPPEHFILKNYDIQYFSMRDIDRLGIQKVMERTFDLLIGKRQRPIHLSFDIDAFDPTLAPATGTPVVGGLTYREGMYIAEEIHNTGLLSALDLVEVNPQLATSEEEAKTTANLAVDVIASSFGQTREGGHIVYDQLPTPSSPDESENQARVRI
Source text: as §1, §2, §3, §4, §5, §6

Row | IC50 (Human Arginase 1) [nM] | clearance [1] [mL/min/kg] | Vd [1] [L/kg] | Cmax ([1]; PO 5 mg/kg) [nM] | Tmax ([1]; PO 5 mg/kg) [min] | IC50 (Human Arginase 2) [nM] | SMILES
1 | 68 | 28.3 | 0.18 | 40 | 15 | 150 | C[C@H](N)C(=O)N[C@H](C(=O)O)[C@H](CN)CCCB(O)O [Example 25, (2S,3S)-3-(aminomethyl)-2-[[(2S)-2-aminopropanoyl]amino]-6-borono-hexanoic acid]
2 | 2560 | 26.6 | 0.15 | – | – | 2030 | CC(C)[C@H](N)C(=O)N[C@H](C(=O)O)[C@H](CN)CCCB(O)O [Example 26, (2S,3S)-3-(aminomethyl)-2-[[(2S)-2-amino-3-methyl-butanoyl]amino]-6-borono-hexanoic acid]
